Results published in patent publication US11214803B2, “Modulators of YAP1 expression” (Ionis Pharmaceuticals, Inc., priority 2019, dated 2022).
Marks after values point to notes of the source that are not given here. Strand notation (5' to 3'): a small letter for the sugar, then the base; units joined by * are phosphorothioate-linked, units joined directly phosphodiester-linked; [ ] holds rarer units or linkages, { } end groups; capitals alone tell only the bases. e = 2'-O-(2-methoxyethyl) (MOE); k = constrained ethyl (cEt); [5mC] = 5-methylcytosine; d = 2'-deoxy (DNA); m = 2'-O-methyl

How the values were obtained:
[1] = Tolerability in Sprague-Dawley rats, body and organ weights (Example 21); assay type: in vivo; conditions: male Sprague-Dawley rats, 50 mg/kg s.c. weekly for 6 weeks (7 doses); for Kidney weight / Liver weight / Spleen weight: end of study; for body weight: terminal, prior to necropsy
Protocol: Terminal body weight was measured prior to necropsy. Ionis oligonucleotides that caused any changes in organ weights outside the expected range for modified oligonucleotides were excluded from further studies.

[2] = Tolerability in Sprague-Dawley rats, plasma chemistry markers (Example 21); assay type: in vivo; conditions: male Sprague-Dawley rats, 50 mg/kg s.c. weekly for 6 weeks (7 doses), 48 hours after last dose
Protocol: Sprague-Dawley rats are a multipurpose model used for safety and efficacy evaluations. The rats were treated with Ionis modified oligonucleotides from the studies described in the Examples above and evaluated for changes in the levels of various plasma chemistry markers.

[3] = test system: Yap1 mRNA; experiment: Dose-dependent inhibition of human Yap1 in SNU-449 cells (Example 9, RTS36584); assay type: cell-based; conditions: free uptake; for % UTC (Yap1 mRNA): approximately 48 hours; for IC50: linear regression on a log/linear plot
How it was run: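 SNU-449 cells (10,000/well) took up modified oligonucleotides by free uptake at a range of doses for about 48 h. Yap1 mRNA was quantified with primer-probe set RTS36584, normalised to RIBOGREEN total RNA and expressed as % untreated control; IC50 from linear regression on log/linear plot.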

[4] = Tolerability in Sprague-Dawley rats, kidney function, urine total protein to creatinine ratio (Example 21); conditions: male Sprague-Dawley rats, 50 mg/kg s.c. weekly for 6 weeks (7 doses)
Protocol: Male Sprague-Dawley rats were maintained on a 12-hour light/dark cycle and fed ad libitum with Purina normal rat chow. Groups of 4 Sprague-Dawley rats each were weekly injected subcutaneously with 50 mg/kg of Ionis oligonucleotide for 6 weeks (total 7 doses). Forty-eight hours after the last dose, the rats were euthanized; and organs, urine and plasma were harvested for further analysis.
To evaluate the effect of Ionis oligonucleotides on kidney function, urinary levels of total protein and creatinine were measured using an automated clinical chemistry analyzer (Hitachi Olympus AU400c, Melville, N.Y.).

[5] = test system: Yap1 mRNA; experiment: Dose-dependent inhibition of human Yap1 in A-431 cells (Example 8, 10,000 cells per well, RTS4814); assay type: cell-based; conditions: free uptake, approximately 48 hours, RTS4814; for Yap1 mRNA, % UTC: A-431 cells, 10,000 cells per well; for IC50: A-431 cells, linear regression on log/linear plot
How it was run: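 A-431 cells (10,000/well) dosed with modified oligonucleotides by free uptake; Yap1 mRNA measured ~48 h later with primer-probe set RTS4814, normalized to total RNA (RIBOGREEN). Values are % of untreated control; IC50 from linear regression on log/linear plot.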

[6] = Tolerability in CD-1 mice, body and organ weights (Example 17); assay type: in vivo; conditions: male CD-1 mice, 50 mg/kg s.c. twice a week for four weeks (8 treatments), end of study (day 27)
Protocol: (§1) Groups of four male CD-1 mice at 4-5 weeks of age (obtained from Charles River) were injected subcutaneously twice a week for four weeks (for a total of 8 treatments) with 50 mg/kg of modified oligonucleotides. One group of male CD-1 mice was injected with PBS. Mice were euthanized on day 27 post start of treatment (24 hrs following the final administration).
Body weights of CD-1 mice were measured at the end of the study, and the average body weight for each group is presented in the table below. Modified oligonucleotides that caused any changes in organ weights outside the expected range for modified oligonucleotides were excluded from further studies.

[7] = Tolerability in CD-1 mice, plasma chemistry markers (Example 17); assay type: in vivo; conditions: male CD-1 mice, 50 mg/kg s.c. twice a week for four weeks (8 treatments), day 27
Protocol: CD-1 mice were treated with modified oligonucleotides selected from studies described above and evaluated for changes in the levels of various plasma chemistry markers.
as §1

| Substance | Kidney weight [1] | Liver weight [1] | Spleen weight [1] | body weight [1] [g] | ALT [2] | AST [2] | BUN [2] | TBIL [2] | % UTC (Yap1 mRNA) ([3]; 31.3 nM) [% UTC] | % UTC (Yap1 mRNA) ([3]; 125.0 nM) [% UTC] | % UTC (Yap1 mRNA) ([3]; 500.0 nM) [% UTC] | % UTC (Yap1 mRNA) ([3]; 2000.00 nM) [% UTC] | IC50 [3] [nM] | URINE P/C ratio (total protein to creatinine ratio) [4] | Yap1 mRNA, % UTC ([5]; 31.3 nM) [% UTC] | Yap1 mRNA, % UTC ([5]; 125.0 nM) [% UTC] | Yap1 mRNA, % UTC ([5]; 500.0 nM) [% UTC] | Yap1 mRNA, % UTC ([5]; 2000.00 nM) [% UTC] | IC50 [5] [nM] | also measured |
| --- | --- | --- | --- | --- | --- | --- | --- | --- | --- | --- | --- | --- | --- | --- | --- | --- | --- | --- | --- | --- |
| 1198873 (kA*kG*dT*dG*dT*dA*dT*dG*dT*d[5mC]*dA*kG*eA*kA*eG*kA; antisense) [compound 1198873] | 3.65 g | 19 g | 2.42 g | 408 | 78* U/L | 79* U/L | 24* mg/dL | 0.17* mg/dL | 38 | 12 | 2 | 0 | < 30 | 9 | – | – | – | – | – | – |
| 1075395 (antisense kA*kT*kG*dA*dA*dT*dA*dA*dG*dT*dA*dT*dG*k[5mC]*k[5mC]*kA) [compound 1075395] | – | – | – | – | – | – | – | – | – | – | – | – | – | – | 60 | 18 | 7 | 5 | < 20 | Kidney weight [6]: 0.49 g; Liver weight [6]: 2.30 g; Spleen weight [6]: 0.20 g; body weight [6]: 34 g; ALT [7]: 38 U/L; AST [7]: 51 U/L; BUN [7]: 21 mg/dL; TBIL [7]: 0.18 mg/dL |
| 1198312 (kG*k[5mC]*kA*d[5mC]*dT*dT*dT*dT*dA*d[5mC]*dA*dT*kT*eA*kG*eG) [compound 1198312] | 4.26 g | 19 g | 2.19 g | 365 | 132 U/L | 108 U/L | 25 mg/dL | 0.14 mg/dL | 76 | 34 | 10 | 5 | 100 | 60 | – | – | – | – | – | – |
| 1200857 (kA*kG*kT*dG*dT*mA*dT*dG*dT*d[5mC]*dA*dG*dA*kA*kG*kA; antisense) [compound 1200857] | 6.97 g | 19 g | 2.55 g | 307 | 183 U/L | 318 U/L | 56 mg/dL | 4.93 mg/dL | 66 | 30 | 8 | 2 | 100 | 52 | – | – | – | – | – | – |
| 1074756 (kG*k[5mC]*kA*d[5mC]*dT*dT*dT*dT*dA*d[5mC]*dA*dT*dT*kA*kG*kG) [compound 1074756] | 4.71* g | 21* g | 1.99* g | 349 | 114* U/L | 79* U/L | 0.57* mg/dL | 0.10* mg/dL | 42 | 20 | 6 | 3 | < 30 | 167 | 22 | 7 | 4 | 4 | < 20 | – |
